Measured values reported in ChEMBL document CHEMBL4814051, “Discovery of effective phosphodiesterase 2 inhibitors with antioxidant activities for the treatment of Alzheimer's disease” (Bioorg Med Chem Lett, 2021).

Tests used:
[1] = Antioxidant activity assessed as trolox equivalent of AAPH-induced radical scavenging activity preincubated for 15 mins followed by AAPH addition and measured every minute for 80 mins by ORAC-FL assay; format: functional; details: time 95.0 min
[2] = Cytotoxicity against human SH-SY5Y cells assessed as cell viability at 50 uM incubated for 48 hrs by CCK-8 method; format: cell-based; details: read-out: Activity
[3] = Cytotoxicity against human SH-SY5Y cells assessed as cell viability at 100 uM incubated for 48 hrs by CCK-8 method; format: cell-based; details: read-out: Activity

Row | SMILES | Activity (Trolox equivalents) [1] | viability at 48 h, 50 µM [2] | viability at 48 h, 100 µM [3]
1 | Cc1nc2ccc(NCc3ccccc3F)cc2n2c(-c3ccccc3Cl)nnc12 | 0.6 |  | 
2 | COc1ccc2[nH]cc(CCNC(C)=O)c2c1 | 2 |  | 
3 | Cc1nc2ccc(NCc3cc(Br)ccc3O)cc2n2c(-c3ccccc3Cl)nnc12 | 2.6 |  | 
4 | Cc1nc2ccc(NCc3ccccc3O)cc2n2c(-c3ccccc3Cl)nnc12 | 3.7 |  | 
5 | Cc1nc2ccc(NCc3ccc(F)cc3O)cc2n2c(-c3ccccc3Cl)nnc12 | 8.4 | 53% | 39%
6 | Cc1nc2ccc(NCc3cc(Cl)ccc3O)cc2n2c(-c3ccccc3Cl)nnc12 | 3.9 |  | 
7 | Cc1nc2ccc(NCc3ccc(Cl)cn3)cc2n2c(-c3ccccc3Cl)nnc12 | 1.9 |  | 
8 | Cc1nc2ccc(/N=C/c3ccc(F)cc3O)cc2n2c(-c3ccccc3Cl)nnc12 | 0.2 |  | 
9 | Cc1nc2ccc(NCc3c(O)cccc3F)cc2n2c(-c3ccccc3Cl)nnc12 | 8.6 | 23% | 10%
10 | Cc1nc2ccc(NCc3cc(OC(F)(F)F)ccc3O)cc2n2c(-c3ccccc3Cl)nnc12 | 5.2 |  | 
11 | Cc1nc2ccc(/N=C/c3ccccc3O)cc2n2c(-c3ccccc3Cl)nnc12 | 0.3 |  | 
12 | Cc1nc2ccc(NCc3ccc(Cl)cc3O)cc2n2c(-c3ccccc3Cl)nnc12 | 6.9 |  | 
13 | Cc1nc2ccc(NCc3ccc(F)cc3)cc2n2c(-c3ccccc3Cl)nnc12 | 0.2 |  | 
14 | Cc1nc2ccc(NCc3cc(F)ccc3O)cc2n2c(-c3ccccc3Cl)nnc12 | 8.1 |  | 
15 | COc1ccc(O)c(CNc2ccc3nc(C)c4nnc(-c5ccccc5Cl)n4c3c2)c1 | 8 |  | 
16 | Cc1nc2ccc(NCc3ccccn3)cc2n2c(-c3ccccc3Cl)nnc12 | 5.5 |  | 
17 | Cc1nc2ccc(NCc3cc(Cl)cc(Cl)c3O)cc2n2c(-c3ccccc3Cl)nnc12 | 6.8 |  | 
